Reference: patent US20170045513A1, “METHODS OF DIAGNOSING CELIAC DISEASE USING IP-10” (ImmusanT, Inc., priority 2014, published 2017)
Non-standard residues stand in square brackets, D forms with d. pGlu = O=C1CC[C@@H](C(=O)O)N1

Tested on: gluten-reactive T cells
Assay: 96-well plate whole blood cytokine release, IP-10 by MAGPIX multiplex bead assay
Format: cell-based, human
Conditions: for Percent of maximal response to individual gluten peptides, IP-10: after oral gluten challenge; for IP-10 WB MAGPIX % max Mean: n = 10, blood after oral gluten challenge, individual peptides 5 μM (Peptide 2* of P14, Pepscan: 10 μg/mL (5.45 μM))

| Substance | Percent of maximal response to individual gluten peptides, IP-10 (Subject 1, Max. 2331 pg/mL) | Percent of maximal response to individual gluten peptides, IP-10 (Subject 2, Max. 3646 pg/mL) | Percent of maximal response to individual gluten peptides, IP-10 (Subject 3, Max. 9492 pg/mL) | Percent of maximal response to individual gluten peptides, IP-10 (Subject 4, Max. 9463 pg/mL) | Percent of maximal response to individual gluten peptides, IP-10 (Subject 5, Max. 9336 pg/mL) | Percent of maximal response to individual gluten peptides, IP-10 (Subject 6, Max. 5863 pg/mL) | Percent of maximal response to individual gluten peptides, IP-10 (Subject 7, Max. 2330 pg/mL) | Percent of maximal response to individual gluten peptides, IP-10 (Subject 8, Max. 4019 pg/mL) | Percent of maximal response to individual gluten peptides, IP-10 (Subject 9, Max. 8349 pg/mL) | Percent of maximal response to individual gluten peptides, IP-10 (Subject 10, Max. 8922 pg/mL) | IP-10 WB MAGPIX % max Mean [% max] |
| --- | --- | --- | --- | --- | --- | --- | --- | --- | --- | --- | --- |
| (pE)QPFPQPEQPTPIQPEQP-amide ([pGlu]QPFPQPEQPTPIQPEQP-NH2; SMILES CC[C@H](C)[C@H](NC(=O)[C@@H]1CCCN1C(=O)[C@@H](NC(=O)[C@@H]1CCCN1C(=O)[C@H](CCC(N)=O)NC(=O)[C@H](CCC(=O)O)NC(=O)[C@@H]1CCCN1C(=O)[C@H](CCC(N)=O)NC(=O)[C@@H]1CCCN1C(=O)[C@H](Cc1ccccc1)NC(=O)[C@@H]1CCCN1C(=O)[C@H](CCC(N)=O)NC(=O)[C@@H]1CCC(=O)N1)[C@@H](C)O)C(=O)N[C@@H](CCC(N)=O)C(=O)N1CCC[C@H]1C(=O)N[C@@H](CCC(=O)O)C(=O)N[C@@H](CCC(N)=O)C(=O)N1CCC[C@H]1C(N)=O) [Peptide 5] | 0 % of max | 13 % of max | ≥ 100 % of max | 46 % of max | 13 % of max | 1 % of max | 2 % of max | 4 % of max | 10 % of max | 60 % of max | 25 |
| (pE)QPPFSEQEQPVLPQ-amide (N-terminal pyroglutamate; C-terminal amide) [Peptide 13] | 0 % of max | 16 % of max | 70 % of max | 0 % of max | 6 % of max | 5 % of max | 0 % of max | 0 % of max | 0 % of max | 0 % of max | 10 |
| (pE)QPYPQPELPYPQPQ-amide ([pGlu]QPYPQPELPYPQPQ-NH2; SMILES CC(C)C[C@H](NC(=O)[C@H](CCC(=O)O)NC(=O)[C@@H]1CCCN1C(=O)[C@H](CCC(N)=O)NC(=O)[C@@H]1CCCN1C(=O)[C@H](Cc1ccc(O)cc1)NC(=O)[C@@H]1CCCN1C(=O)[C@H](CCC(N)=O)NC(=O)[C@@H]1CCC(=O)N1)C(=O)N1CCC[C@H]1C(=O)N[C@@H](Cc1ccc(O)cc1)C(=O)N1CCC[C@H]1C(=O)N[C@@H](CCC(N)=O)C(=O)N1CCC[C@H]1C(=O)N[C@@H](CCC(N)=O)C(N)=O) [Peptide 15] | 4 % of max | 30 % of max | ≥ 100 % of max | 67 % of max | 33 % of max | 0 % of max | 6 % of max | 5 % of max | 69 % of max | 17 % of max | 33 |
| (pE)SGEGSFQPSQENPQ-amide ([pGlu]SGEGSFQPSQENPQ-NH2; SMILES NC(=O)CC[C@H](NC(=O)[C@@H]1CCCN1C(=O)[C@H](CC(N)=O)NC(=O)[C@H](CCC(=O)O)NC(=O)[C@H](CCC(N)=O)NC(=O)[C@H](CO)NC(=O)[C@@H]1CCCN1C(=O)[C@H](CCC(N)=O)NC(=O)[C@H](Cc1ccccc1)NC(=O)[C@H](CO)NC(=O)CNC(=O)[C@H](CCC(=O)O)NC(=O)CNC(=O)[C@H](CO)NC(=O)[C@@H]1CCC(=O)N1)C(N)=O) [Peptide 9] | 0 % of max | 0 % of max | 0 % of max | 0 % of max | 0 % of max | 0 % of max | 0 % of max | 0 % of max | 0 % of max | 0 % of max | 0 |
